Assay results taken from US7893074B2, “2, 4-pyrimidinediamines useful in the treatment of neoplastic diseases, inflammatory and immune system disorders” (Novartis AG, priority 2003, dated 2011).
Where two headings read alike, the source gives them in different places.

Tests used:
[1] = target: Focal Adhesion Kinase (FAK) (Homo sapiens, UniProt Q05397); test: FAK assay system (Focal Adhesion Kinase inhibition); format: biochemical
[2] = system: Mouse mammary carcinoma 4T1 cells; test: Anchorage-independent tumor cell growth assay; format: cell-based
Procedure: Cells are cultured for 2 h and inhibitors are added at various concentrations in a final concentration of 0.1% DMSO. After 48 h, cell growth is assayed with the cell counting kit-8 (Wako Pure Chemical), which uses a water soluble tetrazolium salt WST8. Twenty μL of the reagent is added into each well and cells are further cultured for 2 h. The optical density is measured at 450 nm.

IGF-IR = IGF-IR (Homo sapiens, UniProt P08069); test: Cellular Capture ELISA of IGF-I induced autophosphorylation of the IGF-IR; format: cell-based; details: read-out: IGF-1R IC50
Chain of IGF-IR (P08069 31-1367): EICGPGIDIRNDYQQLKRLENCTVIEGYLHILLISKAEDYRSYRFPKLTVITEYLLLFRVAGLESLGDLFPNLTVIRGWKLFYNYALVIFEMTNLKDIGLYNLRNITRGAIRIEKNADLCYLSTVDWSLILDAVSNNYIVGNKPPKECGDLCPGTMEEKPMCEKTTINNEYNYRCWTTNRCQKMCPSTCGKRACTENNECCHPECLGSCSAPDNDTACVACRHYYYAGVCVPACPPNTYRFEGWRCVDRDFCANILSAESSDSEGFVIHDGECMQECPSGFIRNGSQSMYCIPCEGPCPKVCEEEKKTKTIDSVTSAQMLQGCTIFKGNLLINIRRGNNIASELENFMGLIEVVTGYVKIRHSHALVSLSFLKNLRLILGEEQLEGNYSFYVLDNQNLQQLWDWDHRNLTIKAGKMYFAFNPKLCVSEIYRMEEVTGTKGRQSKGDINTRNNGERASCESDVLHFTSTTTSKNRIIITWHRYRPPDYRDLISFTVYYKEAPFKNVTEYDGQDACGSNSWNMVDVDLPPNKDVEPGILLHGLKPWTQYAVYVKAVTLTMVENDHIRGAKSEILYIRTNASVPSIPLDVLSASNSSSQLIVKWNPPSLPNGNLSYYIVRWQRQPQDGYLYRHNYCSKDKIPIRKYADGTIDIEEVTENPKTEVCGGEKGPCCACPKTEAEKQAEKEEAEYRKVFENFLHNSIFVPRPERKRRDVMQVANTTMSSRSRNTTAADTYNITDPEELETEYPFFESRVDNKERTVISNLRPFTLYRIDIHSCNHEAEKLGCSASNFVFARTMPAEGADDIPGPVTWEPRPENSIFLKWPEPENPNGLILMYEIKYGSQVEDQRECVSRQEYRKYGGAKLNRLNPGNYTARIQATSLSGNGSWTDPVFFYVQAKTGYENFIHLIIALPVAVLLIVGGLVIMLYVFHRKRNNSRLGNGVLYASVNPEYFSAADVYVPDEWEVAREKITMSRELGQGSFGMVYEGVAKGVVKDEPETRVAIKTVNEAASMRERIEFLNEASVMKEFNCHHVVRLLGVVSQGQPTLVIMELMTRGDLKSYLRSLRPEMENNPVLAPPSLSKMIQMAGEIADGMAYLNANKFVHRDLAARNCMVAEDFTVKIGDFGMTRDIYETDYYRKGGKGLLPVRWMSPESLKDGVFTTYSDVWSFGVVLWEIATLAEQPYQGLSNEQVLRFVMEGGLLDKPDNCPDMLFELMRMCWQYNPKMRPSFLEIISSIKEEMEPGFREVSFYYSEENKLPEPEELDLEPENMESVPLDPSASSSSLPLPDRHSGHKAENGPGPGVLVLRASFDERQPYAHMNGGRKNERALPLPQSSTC
Procedure: In this assay the activity of the compounds of the invention against Insulin-like growth factor I (IGF-I) induced autophosphorylation of the IGF-IR is determined.

FAK = FAK (Mus musculus, UniProt P34152); test: Phos IC50 (phosphorylation); format: cell-based
Chain of FAK (P34152 2-1052): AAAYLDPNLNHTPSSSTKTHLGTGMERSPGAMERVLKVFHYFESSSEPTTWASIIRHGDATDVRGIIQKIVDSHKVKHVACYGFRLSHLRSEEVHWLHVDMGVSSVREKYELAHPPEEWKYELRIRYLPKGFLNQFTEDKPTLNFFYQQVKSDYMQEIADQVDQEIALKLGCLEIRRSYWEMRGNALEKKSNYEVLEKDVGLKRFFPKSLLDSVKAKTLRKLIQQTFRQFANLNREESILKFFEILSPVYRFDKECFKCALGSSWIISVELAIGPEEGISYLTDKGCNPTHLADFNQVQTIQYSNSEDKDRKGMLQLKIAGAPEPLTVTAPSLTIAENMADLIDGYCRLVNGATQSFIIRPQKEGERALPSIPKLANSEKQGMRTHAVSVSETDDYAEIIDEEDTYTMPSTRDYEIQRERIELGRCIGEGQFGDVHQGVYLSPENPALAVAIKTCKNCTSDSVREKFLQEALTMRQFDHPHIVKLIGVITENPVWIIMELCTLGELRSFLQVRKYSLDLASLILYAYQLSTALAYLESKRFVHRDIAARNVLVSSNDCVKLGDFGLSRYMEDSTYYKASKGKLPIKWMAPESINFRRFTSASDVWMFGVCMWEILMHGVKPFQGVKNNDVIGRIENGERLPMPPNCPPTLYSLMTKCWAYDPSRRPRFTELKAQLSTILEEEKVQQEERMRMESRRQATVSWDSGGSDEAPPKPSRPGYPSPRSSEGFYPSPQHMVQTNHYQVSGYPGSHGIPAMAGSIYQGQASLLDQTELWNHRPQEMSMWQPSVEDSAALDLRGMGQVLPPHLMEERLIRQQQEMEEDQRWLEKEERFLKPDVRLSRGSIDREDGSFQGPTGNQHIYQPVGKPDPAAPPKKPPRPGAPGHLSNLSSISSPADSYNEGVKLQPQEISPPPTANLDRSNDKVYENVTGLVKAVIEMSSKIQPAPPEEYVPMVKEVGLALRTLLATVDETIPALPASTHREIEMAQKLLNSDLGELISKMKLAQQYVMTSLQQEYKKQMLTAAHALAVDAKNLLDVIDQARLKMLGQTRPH

Chain of Focal Adhesion Kinase (FAK) (Q05397 384-706): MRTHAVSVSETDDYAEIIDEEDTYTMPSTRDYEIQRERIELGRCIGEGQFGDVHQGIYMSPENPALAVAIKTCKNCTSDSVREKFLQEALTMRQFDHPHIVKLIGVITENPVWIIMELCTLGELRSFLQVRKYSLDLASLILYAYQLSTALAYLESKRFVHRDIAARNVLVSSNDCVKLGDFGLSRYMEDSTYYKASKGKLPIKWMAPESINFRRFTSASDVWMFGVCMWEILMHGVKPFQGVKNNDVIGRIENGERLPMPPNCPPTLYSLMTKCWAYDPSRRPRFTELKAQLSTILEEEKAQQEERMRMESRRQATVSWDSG

Row | IC50 ([1]; read-out: FAK IC50) | IC50 ([2]; Mus musculus, 4T1) | IC50 (IGF-IR) | IC50 (FAK) | IC50 ([1]; FAK assay system, read-out: FAK inhibition IC50) | IC50 [2] | SMILES
1 | 9 nM | 300 nM | 200 nM | 40 nM |  |  | CNS(=O)(=O)c1ccccc1Nc1nc(Nc2cccc3[nH]ccc23)ncc1Br [Example 3-11]
2 | 7 nM | 800 nM | 940 nM | 20 nM |  |  | CNS(=O)(=O)c1ccccc1Nc1nc(Nc2cc(OC)ccc2OC)ncc1Br [Example 3-15]
3 | 2.8 nM | 200 nM | < 80 nM | 30 nM | 1 to 5 nM |  | CNS(=O)(=O)c1ccccc1Nc1nc(Nc2cc(OC)c(OC)cc2C)ncc1Br [Example 3-17]
4 | 6.8 nM | 800 nM | 100 nM | 350 nM |  |  | CNS(=O)(=O)c1ccccc1Nc1nc(Nc2ccc(N3CCOCC3)cc2OC)ncc1Br [Example 3-19, 2-[5-Bromo-2-(2-methoxy-4-morpholin-4-yl-phenylamino)-pyrimidin-4-ylamino]-N-methyl-benzenesulfonamide]
5 | 22 nM | 300 nM | 810 nM | 300 nM |  |  | CNS(=O)(=O)c1ccccc1Nc1nc(Nc2cc(-c3ccc(OC)cc3)ccc2C)ncc1Br [Example 3-25]
6 | 5.6 nM | 110 nM | 270 nM | 200 nM |  |  | CNS(=O)(=O)c1ccccc1Nc1nc(Nc2ccc(N3CCC(C(N)=O)CC3)cc2OC)ncc1Br [Example 3-43]
7 | 11 nM | 90 nM | 90 nM | 50 nM |  |  | CNS(=O)(=O)c1ccccc1Nc1nc(Nc2ccc(N3CCS(=O)(=O)CC3)cc2OC)ncc1Br [Example 3-44]
8 | 7 nM | 300 nM | 210 nM | 70 nM |  |  | CNS(=O)(=O)c1ccccc1Nc1nc(Nc2ccc(-n3ccnc3)cc2OC)ncc1Br [Example 3-48]
9 | 13 nM | 1000 nM | 1190 nM | 120 nM |  |  | CNS(=O)(=O)c1ccccc1Nc1nc(Nc2ccc(OC)nc2OC)ncc1Br [Example 3-50]
10 | 21 nM | 300 nM | 140 nM | 80 nM |  |  | CCOc1cc(N2CCOCC2)ccc1Nc1ncc(Br)c(Nc2ccccc2S(=O)(=O)NC)n1 [Example 3-58]
11 | 8 nM | 100 nM | 150 nM | 80 nM |  |  | CNS(=O)(=O)c1ccccc1Nc1nc(Nc2cc(-c3ccncc3)ccc2OC)ncc1Br [Example 3-65]
12 | 1 nM | 70 nM | 250 nM | 80 nM |  |  | CNS(=O)(=O)c1ccccc1Nc1nc(Nc2cc(-c3cccnc3)ccc2OC)ncc1Br [Example 3-66]
13 | 11 nM | 290 nM | 1630 nM | 30 nM |  |  | CNS(=O)(=O)c1ccccc1Nc1nc(Nc2cc(OCCCN3CCOCC3)ccc2OC)ncc1Br [Example 3-73]
14 | 12 nM | 450 nM | 5000 nM | 220 nM |  |  | CNS(=O)(=O)c1ccccc1Nc1nc(Nc2ccc(F)cc2OC)ncc1Br [Example 3-80]
15 | 21 nM | 980 nM | > 10000 nM | 520 nM |  |  | CNS(=O)(=O)c1ccccc1Nc1nc(Nc2cc(F)ccc2OC)ncc1Br [Example 3-81]
16 | 4.7 nM | 540 nM | 190 nM | 600 nM |  |  | CNC(=O)c1ccccc1Nc1nc(Nc2ccc(N3CCC(N4CCCCC4)CC3)cc2OC)ncc1Cl [Example 7-1]
17 | 2.9 nM | 390 nM | 270 nM | 300 nM |  |  | CNC(=O)c1ccccc1Nc1nc(Nc2ccc(N3CCN(C)CC3)cc2OC)ncc1Cl [Example 7-3]
18 | 6.2 nM | 200 nM | 250 nM | 300 nM |  |  | CNC(=O)c1ccccc1Nc1nc(Nc2ccc(OC3CCN(C)CC3)cc2OC)ncc1Cl [Example 7-5]
19 | 2.5 nM | 1200 nM | 770 nM | 600 nM |  |  | CNC(=O)c1ccccc1Nc1nc(Nc2ccc(N3CCC(N(C)C)C3)cc2OC)ncc1Cl (stereo not shown) [Example 7-11]
20 | 7.6 nM | 360 nM | 330 nM | 300 nM |  |  | CNC(=O)c1ccccc1Nc1nc(Nc2ccc(N3CCC(N4CCN(C)CC4)CC3)cc2OC)ncc1Cl [Example 7-14]
21 | 13 nM | 1000 nM | > 10000 nM | 220 nM |  |  | CNC(=O)c1ccccc1Nc1nc(Nc2cc(F)ccc2OC)ncc1Br [Example 8-3]
22 | 22 nM |  | 600 nM | 360 nM |  | 1600 nM | CCNC(=O)c1ccccc1Nc1nc(Nc2ccc(N3CCOCC3)cc2OC)ncc1Cl [Example 9-5]
23 | 1.6 nM | 340 nM | 140 nM | 200 nM |  |  | COc1cc(N2CCC(N3CCN(C)CC3)CC2)ccc1Nc1ncc(Cl)c(Nc2ccccc2S(=O)(=O)NC(C)C)n1 [Example 19-4]

Row | IC50 ([1]; read-out: FAK IC50) | IC50 ([2]; Mus musculus, 4T1) | IC50 (IGF-IR) | IC50 (FAK) | IC50 ([1]; FAK assay system, read-out: FAK inhibition IC50) | IC50 [2] | SMILES
24 | 1.3 nM | 560 nM | 1020 nM | 60 nM |  |  | COc1cc(NCC(C)(C)CN(C)C)ccc1Nc1ncc(Cl)c(Nc2ccccc2S(=O)(=O)NC(C)C)n1 [Example 19-10]
25 | 9 nM | 700 nM | 630 nM | > 10000 nM |  |  | CNC1CCN(c2ccc(Nc3ncc(Cl)c(Nc4ccccc4S(=O)(=O)NC(C)C)n3)c(OC)c2F)C1 (stereo not shown) [Example 19-12]
26 | 1.6 nM | 70 nM | 230 nM | 30 nM |  |  | COc1cc(OC2CCN(C)C2)ccc1Nc1ncc(Cl)c(Nc2ccccc2S(=O)(=O)NC(C)C)n1 (stereo not shown) [Example 19-20]
27 | 7.2 nM | 490 nM | 240 nM | 1000 nM |  |  | CC(C)NS(=O)(=O)c1ccccc1Nc1nc(Nc2ccc(N3CCOCC3)cc2F)ncc1Cl [Example 19-25]
28 | 42 nM | 2500 nM | 2780 nM | 400 nM |  |  | CNS(=O)(=O)c1ccccc1Nc1nc(Nc2ccccc2OC(F)(F)F)ncc1Cl [Example 20-3]
29 | 3 nM | 50 nM | 380 nM | 100 nM |  |  | CNS(=O)(=O)c1ccccc1Nc1nc(Nc2ccc(N3CCNCC3)cc2OC)ncc1Cl [Example 20-7]
30 | 12 nM | 50 nM | 290 nM | 850 nM |  |  | CNS(=O)(=O)c1ccccc1Nc1nc(Nc2ccc(OC3CCN(C)CC3)cc2OC)ncc1Cl [Example 20-27]
31 | 9.2 nM | 80 nM | 420 nM | 170 nM |  |  | CNS(=O)(=O)c1ccccc1Nc1nc(Nc2ccc(OC3CCN(C(C)C)C3)cc2OC)ncc1Cl (stereo not shown) [Example 20-28]
32 | 7.6 nM | 80 nM | 670 nM | 300 nM |  |  | CCN1CCC(Oc2ccc(Nc3ncc(Cl)c(Nc4ccccc4S(=O)(=O)NC)n3)c(OC)c2)C1 (stereo not shown) [Example 20-30]
33 | 8.7 nM | 90 nM | 150 nM | 90 nM |  |  | CNS(=O)(=O)c1ccccc1Nc1nc(Nc2cc(OC)c(OC)cc2C)ncc1Cl [Example 20-35]
34 | 6.6 nM | 150 nM | 260 nM | 90 nM |  |  | COc1cc(N2CCOCC2)ccc1Nc1ncc(Cl)c(Nc2ccccc2S(=O)(=O)NCC(C)C)n1 [Example 22-3]
35 | 1.5 nM | 400 nM | 800 nM | 200 nM |  |  | CCC(CC)NS(=O)(=O)c1ccccc1Nc1nc(Nc2ccc(N3CCN(C)CC3)cc2OC)ncc1Cl [Example 23-2]
36 | 1.7 nM | 1120 nM | 820 nM | 1000 nM |  |  | CCC(CC)NS(=O)(=O)c1ccccc1Nc1nc(Nc2ccc(N3CCC(NC)C3)cc2OC)ncc1Cl (stereo not shown) [Example 23-3]
37 | 1.2 nM | 1070 nM | 600 nM | 900 nM |  |  | CCNC1CCN(c2ccc(Nc3ncc(Cl)c(Nc4ccccc4S(=O)(=O)NC(CC)CC)n3)c(OC)c2)C1 (stereo not shown) [Example 23-4]
38 | 3.6 nM | 440 nM | 50 nM | 110 nM |  |  | COc1cc(N2CCOCC2)ccc1Nc1ncc(Cl)c(Nc2ccccc2S(=O)(=O)NC2CCC2)n1 [Example 24-1]
39 | 2.1 nM | 110 nM | 390 nM | 500 nM |  |  | COc1cc(OC2CCN(C)CC2)ccc1Nc1ncc(Cl)c(Nc2ccccc2S(=O)(=O)NC2CCC2)n1 [Example 24-2]
40 | 3 nM | 130 nM | 640 nM | 400 nM |  |  | COc1cc(OC2CCN(C)CC2)ccc1Nc1ncc(Cl)c(Nc2ccccc2S(=O)(=O)NC2CCCC2)n1 [Example 25-2]
41 | 4.4 nM | 350 nM | 290 nM | 50 nM |  |  | CCCS(=O)(=O)c1ccccc1Nc1nc(Nc2ccc(N3CCOCC3)cc2OC)ncc1Cl [Example 26-1]
42 | 6.9 nM | 80 nM | 70 nM | 1200 nM |  |  | CCCS(=O)(=O)c1ccccc1Nc1nc(Nc2cc(N3CCN(C(C)=O)CC3)ccc2OC)ncc1Cl [Example 26-15]
43 | 1.4 nM | 90 nM | 180 nM | 300 nM |  |  | CCCS(=O)(=O)c1ccccc1Nc1nc(Nc2ccc(N3CCN(C(C)C)CC3)cc2OC)ncc1Cl [Example 26-23]
44 | 1.9 nM | 70 nM | 340 nM | 200 nM |  |  | CCCS(=O)(=O)c1ccccc1Nc1nc(Nc2ccc(OC3CCN(C)CC3)cc2OC)ncc1Cl [Example 26-26]
45 | 12 nM | 460 nM | 300 nM | 300 nM |  |  | COc1cc(N2CCCC(C(N)=O)C2)ccc1Nc1ncc(Cl)c(Nc2ccccc2S(=O)(=O)C(C)C)n1 (stereo not shown) [Example 28-1]
